“Also recorded” adds a separate entry of the source.
Tests used:
PDEC-N and PDEC-BC = test: Immunofluorescent staining of nuclear ERα and phosphorylated p38 in PDEC-N and PDEC-BC after compound exposure; assay type: cell-based, human
Method: Fresh tissue was obtained from elective breast cancer surgeries. Tissue was collected from both the tumor tissue and the area surrounding the tumor (non-tumor samples). Also tissue from reduction mammoplasties (RMP) were collected. From every tumor, one portion was taken for immunohistochemical analysis (IHC), for DNA/RNA/protein isolation, and the rest was used for isolation of fragments and 3D culture. For isolation of human breast cancer fragments, breast cancer tissue was incubated with 0.2% collagenase in MammoCult media produced by StemCell technologies (supplemented with 4 ug/mL heparin, MammoCult proliferation supplements, 0.1 µg/mL 10.000 UI/mL PenStrep, Amphotericin, and 25 µg/mL Gentamycin) with gentle shaking at 37° C. overnight. The resulting cell suspension was then centrifuged at 1,300 rpm for 3 min, washed once with MammoCult and plated in 8-chamber plates. Matrices used for the cultures were: Agarose (UltraPure™ Low Melting Point Agarose, Invitrogen™), Collagen (Collagen I Rat tail, Corning), Matrigel (Matrigel Basement Matrix Growth Factor Reduced, 8.8 mg/mL, Corning), Egg white, Ovomucine, GrowDex (15 mg/mL, UPM-Kymmene OYj), Alginate (Alginic acid sodium salt, Aldrich) and Alginate-RGD (Sodium Alginate MVG GRGDSP, NovaMatrix, NOVATACH). Ovomucin was isolated from chicken egg whites according to an established protocol (Omana and Wu, 2009, J Agric Food Chem 57, 3596-3603). Briefly, ovomucin was isolated from egg white using isoelectric precipitation in the presence of 100 mM NaCl solution at pH adjusted to 6.0. The resulting mixture was stored overnight at 4° C. in a refridgerator followed by centrifugation. The precipitate was re-suspended in 500 mM NaCl solution at pH 6.0 again and stored overnight at 4° C. The dispersion was centrifuged, and the precipitate was purified by dialyzing against water overnight. Dialysed sample was freeze-dried under the vacuum. For gelation, the solid ovomucin powder was dissolved in MilliQ (18 W) water using Ultra-Turrax (IKA) mixer.
(§1) For immunofluorescent analysis 3D cultured breast cancer fragments were fixed with 4% paraformaldehyde for 20 min at room temperature and washed three times with PBS. The tissue fragments were permeabilized with 0.25% Triton X-100 in PBS for 10 min at RT and blocked in IF buffer (7.7 mM NaN3, 0.1% BSA, 0.2% Triton X-100, and 0.05% Tween 20 in PBS) supplemented with 10% (vol/vol) normal goat serum for1-1.5 h. The fragments were then incubated with the primary antibody diluted in blocking solution overnight at +4° C. Following incubation, fragments were washed three times with IF buffer (20 min each wash) and then incubated with the appropriate Alexa Fluor secondary antibody diluted in IF buffer with 10% goat serum. After 60 min of incubation at RT, the fragments were washed with IF buffer as before and the nuclei were counterstained with Hoechst 33258 (Sigma). Slides containing tissue fragments were mounted with ImmuMount reagent. Images of the structures were acquired using a Leica TCS SP8 CARS confocal microscope using a HC PL APO CS2 40x objective.
(§2) We observed stress-responsive mitogen-activated protein kinase (MAPKs) pathway activated in the in LMx-Ag, compared to LMx-Al. The nuclear expression of phosphorylated p38 was also visible in the MMECs cultured in LMx-Ag. To confirm the role of stress-responsive mitogen-activated protein kinases in the ERα activation, we used anisomycin to directly activate the pathway in TNBC cell line, DU4475. […] We used inhibitor of the methyltransferase EZH2, which mediates the silencing of ERα and observed the retained expression of ERα (FIG. 4D).

TNBC cell line DU4475 = test: Immunofluorescent staining of nuclear ERα in TNBC cell line DU4475 after EZH2 inhibitor; assay type: cell-based; conditions: TNBC cell line DU4475 after exposure to compound
MMECs = test: Immunofluorescent staining of nuclear ERα in MMECs after compound exposure; assay type: cell-based, mouse; conditions: MMECs after exposure to compound
Method: Mouse primary mammary epithelial fragments were isolated with 0.2% collagenase for 1 h at +37° C. Media used for the mouse tissue was DMEM/F12 (Thermo Fisher Scientific) supplemented with 5% horse serum, 5 ug/mL Insulin, 1 µg/mL hydrocortisone, 10 ng/mL EGF, and 100 U PenStrep.
as §1, with “objective. […]” for “objective.”

TNBC cell line, DU4475 = test: Western blot of ERα in TNBC cell line after anisomycin treatment; assay type: cell-based
Source text: as §2

[1] = test system: ERα downstream targets PGR and GREB1 in PDEC-BC; test: QRT-PCR of ERα target genes in PDEC-BC cultures after tamoxifen/antiestrogen treatment; assay type: cell-based, human
Method: Instead of anisomycin, the stress activated protein kinase pathway is also activated by multiple other factors e.g oxidative stress. We observed, if the PDEC cultures were performed under a higher oxygen concentration, such as in air-liquid interface, the functional ERα was preserved together with the activation of p38 (FIG. 5A). We treated these PDEC-BC with antiestrogens and observed a suppression in ERα downstream targets PGR and GREB1 (FIG. 5B).
We exposed the human PDEC-N and PDEC-BC cultures to the additional compressive forces with the magnet mediated mechanical compression (FIG. 5C). […] We treated the compressed PDEC-BC with tamoxifen and observed a suppression in ERα downstream targets PGR and GREB1 (FIG. 5E).

[2] = PDEC-BC (PDEC-T) after exposure to compound
[3] = PDEC-N after exposure to compound
[4] = PDEC-BC exposed to magnet-mediated compression

SMILES	nuclear ERα (immunofluorescent staining) (PDEC-N and PDEC-BC; [2])	nuclear ERα (immunofluorescent staining) (PDEC-N and PDEC-BC; [3])	nuclear ERα (immunofluorescent staining) (TNBC cell line DU4475)	nuclear ERα (immunofluorescent staining) (MMECs)	phosphorylated p38 (immunofluorescent staining) (PDEC-N and PDEC-BC; PDEC-BC after exposure to compound)	phosphorylated p38 (immunofluorescent staining) (PDEC-N and PDEC-BC; [3])	ERα expression (Western blot) (TNBC cell line, DU4475)	GREB1 expression [1, 4]	PGR expression (QRT-PCR) [1, 4]	PGR expression (QRT-PCR) ([1]; PDEC-BC exposed to magnet-mediated compression, listed as Tamoxifen)	PGR expression (QRT-PCR) ([1]; air-liquid interface (ALI) cultured PDEC-BC, o/n treatment)
CC[C@H](C)n1cc(C)c2c(C(=O)NCc3c(C)cc(C)[nH]c3=O)cc(-c3ccc(N4CCNCC4)nc3)cc21 [GSK-126]	activation of nuclear ERα	activation of nuclear ERα	activation of nuclear ERα	activation of nuclear ERα							
COc1ccc(C[C@H]2NC[C@H](O)[C@H]2OC(C)=O)cc1 [anisomycin]	activation of nuclear ERα	activation of nuclear ERα		activation of nuclear ERα	activation of phosphorylated-38	activation of phosphorylated-38	able to activate the ERα expression; also recorded: upregulation of ERα				
CC/C(=C(\c1ccccc1)c1ccc(OCCN(C)C)cc1)c1ccccc1 [tamoxifen]								suppression	suppression	suppresses	downregulation

— US20230151334A1, “CULTURE PLATFORMS, METHODS, AND USES THEREOF” (HELSINGIN YLIOPISTO, priority 2020, published 2023)
